The results in this text go back to patent publication US8314112B2 (Novartis AG, priority 2008, dated 2012).

Molecules are shown by their SMILES. pIC50: −log10 of the molar value. Bounds are passed on as bounds.

The term pIC50 denotes the negative decadic logarithm of the IC50, by convention in mol/L. A high value points to a low IC50.

This experiment concerns the target T1, human ALK5 (kinase domain, ALK5 T204D) (Homo sapiens, UniProt P36897, T204D).
T1 construct: The kinase domain of human ALK5 (amino acids 200-503); made in house; host or cells: insect cells (baculovirus)
T1 sequence (P36897 200-503 T204D): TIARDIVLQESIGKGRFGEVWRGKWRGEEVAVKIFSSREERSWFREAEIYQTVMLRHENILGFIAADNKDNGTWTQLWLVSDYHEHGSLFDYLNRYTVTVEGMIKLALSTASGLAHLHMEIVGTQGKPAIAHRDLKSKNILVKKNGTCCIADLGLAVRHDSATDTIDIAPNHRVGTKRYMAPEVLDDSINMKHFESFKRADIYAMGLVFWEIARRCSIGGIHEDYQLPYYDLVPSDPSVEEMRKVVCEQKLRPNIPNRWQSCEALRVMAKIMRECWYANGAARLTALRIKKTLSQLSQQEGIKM
Put plainly: ALK5 kinase assay ([33P] phosphate incorporation into casein). Type of experiment: biochemical. The conditions noted are these: casein substrate, 1 μM unlabelled ATP. Put shortly:
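His-tagged human ALK5 T204D kinase domain (aa 200-503, constitutively active, baculovirus/insect-cell expressed), 50 ng/well, preincubated 10 min with compound and dephosphorylated casein (200 μg/well) in Tris pH 7.4/MgCl2/MnCl2. Reaction started with 1 μM ATP plus [33P]ATP, 50 min at room temperature, EDTA-stopped; casein-bound 33P counted by scintillation after filter capture.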
Turning to `Cc1cccc(-c2nc(-c3cncc(CO)c3)c3cc[nH]c3n2)n1` [Example 79, {5-[2-(6-Methyl-pyridin-2-yl)-7H-pyrrolo[2,3-d]pyrimidin-4-yl]-pyridin-3-yl}-methanol], the pIC50 is 5.91. The same measure for `Cc1cccc(-c2nc(-c3cncc(-c4ccc(CNCCO)cc4)c3)c3cc[nH]c3n2)n1` [Example 151]: 8.24. `Cc1cccc(-c2cc(-c3cncc(-c4ccc(CNCCC(=O)O)cc4)c3)c3cc[nH]c3n2)n1` [Example 140, 3-(4-{5-[6-(6-Methyl-pyridin-2-yl)-1H-pyrrolo[2,3-b]pyridin-4-yl]-pyridin-3-yl}-benzylamino)-propionic acid] showed a negative logarithm of the IC50 (pIC50) of 8.21. `Cc1cccc(-c2cc(-c3cncc(O)c3)c3cc[nH]c3n2)n1` [Example 107, 5-[6-(6-Methyl-pyridin-2-yl)-1H-pyrrolo[2,3-b]pyridin-4-yl]-pyridin-3-ol]: the pIC50 was 7.37. The same measure for `CC(=O)N1CC=C(c2cncc(-c3cc(-c4cccc(C)n4)nc4[nH]ccc34)c2)CC1` [Example 121, 1-{5-[6-(6-Methyl-pyridin-2-yl)-1H-pyrrolo[2,3-b]pyridin-4-yl]-3′,6′-dihydro-2′H-[3,4′]bipyridinyl-1′-yl}-ethanone]: 7.19; for `Cc1cccc(-c2cc(-c3cncc(-c4ccc(CN(C)C)cc4)c3)c3cc[nH]c3n2)n1` [Example 65, Dimethyl-(4-{5-[6-(6-methyl-pyridin-2-yl)-1H-pyrrolo[2,3-b]pyridin-4-yl]-pyridin-3-yl}-benzyl)-amine]: 8.30. `Cc1cccc(-c2nc(-c3cncc(-c4cncc(CO)c4)c3)c3cc[nH]c3n2)n1` [Example 78, {5′-[2-(6-Methyl-pyridin-2-yl)-7H-pyrrolo[2,3-d]pyrimidin-4-yl]-[3,3′]bipyridinyl-5-yl}-methanol]: the negative logarithm of the IC50 (pIC50) was 7.31.

As to `Cc1cccc(-c2cc(-c3cccnc3)c3cc[nH]c3n2)n1` [Example 46, 6-(6-methyl-pyridin-2-yl)-4-pyridin-3-yl-1H-pyrrolo[2,3-b]pyridine], the pIC50 was 6.58. Turning to `Cc1cccc(-c2nc(-c3cnc4ccccc4c3)c3cc[nH]c3n2)n1` [Example 28, 3-[2-(6-Methyl-pyridin-2-yl)-7H-pyrrolo[2,3-d]pyrimidin-4-yl]-quinoline], the negative-log IC50 (pIC50) was 6.74. `CNCc1cncc(-c2cncc(-c3nc(-c4cccc(C)n4)nc4[nH]ccc34)c2)c1` [Example 76] showed a pIC50 of 6.93. The same measure for `Cc1cccc(-c2nc(-c3cncc(-c4ccc(CN5CCOCC5)cc4)c3)c3cc[nH]c3n2)n1` [Example 69, 2-(6-Methyl-pyridin-2-yl)-4-[5-(4-morpholin-4-ylmethyl-phenyl)-pyridin-3-yl]-7H-pyrrolo[2,3-d]pyrimidine]: over 7.19; for `CNCc1cncc(-c2cncc(-c3cc(-c4cccc(C)n4)nc4[nH]ccc34)c2)c1` [Example 92, Methyl-{5′-[6-(6-methyl-pyridin-2-yl)-1H-pyrrolo[2,3-b]pyridin-4-yl]-[3,3′]bipyridinyl-5-ylmethyl}-amine]: 6.99. The same measure for `Cc1cccc(-c2nc(-c3cncc(N4CCC(O)CC4)c3)c3cc[nH]c3n2)n1` [Example 49, 5′-[2-(6-Methyl-pyridin-2-yl)-7H-pyrrolo[2,3-d]pyrimidin-4-yl]-3,4,5,6-tetrahydro-2H-[1,3′]bipyridinyl-4-ol]: 5.97; for `Cc1cccc(-c2nc(-c3cncc(-c4cncc(CN(C)C)c4)c3)c3cc[nH]c3n2)n1` [Example 75]: 6.51; for `Cc1cccc(-c2nc(-c3cncc(-c4cccc(CN)c4)c3)c3cc[nH]c3n2)n1` [Example 59, 3-{5-[2-(6-Methyl-pyridin-2-yl)-7H-pyrrolo[2,3-d]pyrimidin-4-yl]-pyridin-3-yl}-benzylamine]: 7.52. With `COC(=O)CNCc1cccc(-c2cncc(-c3cc(-c4cccc(C)n4)nc4[nH]ccc34)c2)c1` [Example 131, (3-{5-[6-(6-Methyl-pyridin-2-yl)-1H-pyrrolo[2,3-b]pyridin-4-yl]-pyridin-3-yl}-benzylamino)-acetic acid methyl ester] the figure was 8.00; with `Cc1cccc(-c2cc(-c3cncc(-c4ccc(CNCC(=O)O)cc4)c3)c3cc[nH]c3n2)n1` [Example 136, (4-{5-[6-(6-Methyl-pyridin-2-yl)-1H-pyrrolo[2,3-b]pyridin-4-yl]-pyridin-3-yl}-benzylamino)-acetic acid], 8.00. For the compound `Cc1cccc(-c2cc(-c3cncc(-c4ccc([C@@H](C)N)cc4)c3)c3cc[nH]c3n2)n1` [Example 128, (R)-1-(4-{5-[6-(6-Methyl-pyridin-2-yl)-1H-pyrrolo[2,3-b]pyridin-4-yl]-pyridin-3-yl}-phenyl)-ethylamine], the pIC50 was 7.89. The same measure for `Cc1cccc(-c2cc(-c3cncc(C4=CCCC4)c3)c3cc[nH]c3n2)n1` [Example 89, 4-(5-Cyclopent-1-enyl-pyridin-3-yl)-6-(6-methyl-pyridin-2-yl)-1H-pyrrolo[2,3-b]pyridine]: 7.10; for `C#Cc1cncc(-c2nc(-c3cccc(C)n3)nc3[nH]ccc23)c1` [Example 119, 4-(5-Ethynyl-pyridin-3-yl)-2-(6-methyl-pyridin-2-yl)-7H-pyrrolo[2,3-d]pyrimidine]: 6.53; for `Cc1cccc(-c2cc(-c3cncc(-c4ccc(CN(C)CCO)cc4)c3)c3cc[nH]c3n2)n1` [Example 153, 2-[Methyl-(4-{5-[6-(6-methyl-pyridin-2-yl)-1H-pyrrolo[2,3-b]pyridin-4-yl]-pyridin-3-yl}-benzyl)-amino]-ethanol]: 7.96.

As to `c1ccc(-c2nc(-c3cccnc3)c3cc[nH]c3n2)nc1` [Example 1, 4-Pyridin-3-yl-2-pyridin-2-yl-7H-pyrrolo[2,3-d]pyrimidine], the pIC50 was 5.93. On to `Cc1cccc(-c2nc(-c3cncc(Br)c3)c3cc[nH]c3n2)n1` [Example 16, 4-(5-bromo-pyridin-3-yl)-2-(6-methyl-pyridin-2-yl)-7H-pyrrolo[2,3-d]pyrimidine], for which the pIC50 was 5.74.

Consider `Cc1cccc(-c2nc(-c3cncc(N4CCCCC4)c3)c3cc[nH]c3n2)n1` [Example 48, 5′-[2-(6-Methyl-pyridin-2-yl)-7H-pyrrolo[2,3-d]pyrimidin-4-yl]-3,4,5,6-tetrahydro-2H-[1,3′]bipyridinyl], for which the negative logarithm of the IC50 (pIC50) was 5.87. On to `Cc1cccc(-c2cc(-c3cncc(-c4cccc(CN5CCN(C)CC5)c4)c3)c3cc[nH]c3n2)n1` [Example 63, 4-{5-[3-(4-Methyl-piperazin-1-ylmethyl)-phenyl]-pyridin-3-yl}-6-(6-methyl-pyridin-2-yl)-1H-pyrrolo[2,3-b]pyridine], for which the pIC50 was 7.92. As to `Cc1cccc(-c2nc(-c3cncc(-c4cccc(C(C)(C)N)c4)c3)c3cc[nH]c3n2)n1` [Example 85, 1-Methyl-1-(3-{5-[2-(6-methyl-pyridin-2-yl)-7H-pyrrolo[2,3-d]pyrimidin-4-yl]-pyridin-3-yl}-phenyl)-ethylamine], the pIC50 was 7.00.

In the case of `Cc1cccc(-c2cc(-c3cncc4ccccc34)c3cc[nH]c3n2)n1` [Example 56, 4-[6-(6-Methyl-pyridin-2-yl)-1H-pyrrolo[2,3-b]pyridin-4-yl]-isoquinoline], the pIC50 was over 7.15. The same measure for `Cc1cccc(-c2nc(-c3cncc(-c4ccc(CN)cc4)c3)c3cc[nH]c3n2)n1` [Example 61, 4-{5-[2-(6-Methyl-pyridin-2-yl)-7H-pyrrolo[2,3-d]pyrimidin-4-yl]-pyridin-3-yl}-benzylamine]: 7.54; for `Cc1cccc(-c2cc(-c3cncc(-c4ccc(CN5CCC(F)(F)C5)cc4)c3)c3cc[nH]c3n2)n1` [Example 134, 4-{5-[4-(3,3-Difluoro-pyrrolidin-1-ylmethyl)-phenyl]-pyridin-3-yl}-6-(6-methyl-pyridin-2-yl)-1H-pyrrolo[2,3-b]pyridine]: 7.41. The same measure for `Cc1cccc(-c2nc(-c3cncc(-c4ccncc4)c3)c3cc[nH]c3n2)n1` [Example 21, 5-[2-(6-Methyl-pyridin-2-yl)-7H-pyrrolo[2,3-d]pyrimidin-4-yl]-[3,4′]bipyridinyl]: 7.08; for `Cc1cccc(-c2nc(-c3cncc(C4=CCCCC4)c3)c3cc[nH]c3n2)n1` [Example 72, 4-(5-Cyclohex-1-enyl-pyridin-3-yl)-2-(6-methyl-pyridin-2-yl)-7H-pyrrolo[2,3-d]pyrimidine]: 6.70.

Compound `Cc1cncc(-c2nc(-c3cccc(C)n3)nc3[nH]ccc23)c1` [Example 96, 4-(5-Methyl-pyridin-3-yl)-2-(6-methyl-pyridin-2-yl)-7H-pyrrolo[2,3-d]pyrimidine] had a pIC50 of 6.12.

Consider `Cc1cccc(-c2cc(-c3cncc(CO)c3)c3cc[nH]c3n2)n1` [Example 109, {5-[6-(6-Methyl-pyridin-2-yl)-1H-pyrrolo[2,3-b]pyridin-4-yl]-pyridin-3-yl}-methanol], for which the pIC50 was 6.09. The same measure for `COC(=O)CNCc1ccc(-c2cncc(-c3nc(-c4cccc(C)n4)nc4[nH]ccc34)c2)cc1` [Example 149, (4-{5-[2-(6-Methyl-pyridin-2-yl)-7H-pyrrolo[2,3-d]pyrimidin-4-yl]-pyridin-3-yl}-benzylamino)-acetic acid methyl ester]: 8.10.
